Data as given in patent US20040186166A1, “Cannabinoid analogs as peroxisome proliferator activated nuclear receptor gamma activators” (priority 2002, published 2004).

What was measured:
[1] = target: T1, PPARγ / GST-DRIP205 (amino acids 527-970) (Mus musculus, UniProt P37238); test: GST pull-down assay, PPARγ with GST-DRIP205; type: binding; settings: 20 μM AJA
T1 construct: made in house; host or cells: PPARγ1: reticulocyte lysate; GST-DRIP205: E. coli BL21, kept on glutathione-Sepharose beads
Experimental: The glutathione S-transferase (GST)-DRIP205 (amino acid 527-970) and GST-RAC3 RID (amino acid 613-752) fusion proteins were expressed in BL21 cells by induction with 0.1 mM isopropyl-β-D-thiogalactopyranoside (IPTG) at room temperature for 4 hours. The bacterial pellet was resuspended in STE buffer (150 mM NaCl, 10 mM Tris pH 8.0, 1 mM EDTA), containing 5 mM dithiothreitol (DTT), 1 mM phenylmethlsulfonyl fluoride (PMSF) and 1.5% Sarkosyl. The cell suspension was sonicated and centrifuged at 7400 rpm at 4° C. for 30 minutes. The supernatant was isolated and 0.02% Triton-X 100 was added, and the mixture was then incubated with 1 ml 50% slurry of glutathione-Sepharose beads on a rotator at 4° C. for 30 minutes. The beads were spun down at 3000 rpm for 10 minutes, the supernatant was removed, and the beads were suspended in 1 ml cold PBS.
Approximately 5 μg of GST-DRIP205 or GST-RAC3 bound on glutathione-Sepharose beads and 4 μl ^35S-methionine-labeled mPPARγ1 were incubated with the indicated concentrations of AJA, GW347845, or vehicle alone in H buffer (20 mM Hepes [pH 7.7], 75 mM KCl, 0.1 mM EDTA, 2.5 mM MgCl2, 0.05% NP40, 0.1 mM methionine, 1 mM DTT) containing 1 mg/ml bovine serum albumin (BSA) on a rotator at 4° C. overnight. After three washes with cold PBS, the bound protein was eluted in SDS sample buffer and boiled for 10 min before SDS-PAGE and autoradiography. […]

[2] = animal models; cited from earlier work
[3] = target: T2, human PPARα (Homo sapiens, UniProt Q07869); test: Gal4-dependent MH100-Luc reporter, human PPARα; type: cell-based
T2 construct: The Gal4-hPPAR LBD constructs were obtained from GlaxoSmithKline; host or cells: HEK293
T2 sequence (Q07869 239-466 limits assumed): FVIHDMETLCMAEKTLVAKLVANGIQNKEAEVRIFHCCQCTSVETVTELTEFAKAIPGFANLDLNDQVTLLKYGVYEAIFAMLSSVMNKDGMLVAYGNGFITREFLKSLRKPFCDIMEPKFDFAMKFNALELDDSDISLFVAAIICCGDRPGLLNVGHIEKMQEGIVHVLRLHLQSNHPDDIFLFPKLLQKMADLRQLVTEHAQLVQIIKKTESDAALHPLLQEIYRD
Experimental: The pGEX-DRIP205 (527˜970) was obtained from the Sloan-Kettering Cancer Center. The Gal4-hPPAR LBD constructs were obtained from GlaxoSmithKline, Research Triangle Park, NC. The IL8-Luciferase reporter was obtained from Celgene, San Diego, Calif. The plasmids mPPARα, mPPARγ1, mPPARδ , and hRXRα were in the pCMX vector (Umesono et al., Cell 65:1255-1266, 1991).
For PPARγ activation assay, HEK293 cells were plated in 12-well cell culture plates and maintained in Dulbecco's modified Eagle's medium (DMEM) supplemented with 10% fetal bovine serum (FBS) at 37° C. under 5% CO2. […] The average normalized luciferase activity was determined via triplicate experiments. […]
To further confirm activation of PPARγ by AJA, and also to determine PPARγ species specificity, the ability of AJA to activate the chimeric Gal4-DBD/PPAR fusion proteins on a Gal4-dependent MH100-Luc reporter was assessed (FIG. 4A). The PPARs were expressed as Gal4 DBD fusion proteins, which bind to the UAS promoter containing 4 copies of a synthetic Gal4 binding site upstream of the minimal thymidine kinase (TK) promoter. […] Transfected cells were treated with increasing concentrations of AJA from 10-60 μM and the luciferase activities were determined in triplicate experiments. […]

[4] = target: CB2 (Homo sapiens, UniProt P34972); settings: Recht et al. 2001; cited from earlier work
Sequence of CB2 (P34972 whole entry, species assumed): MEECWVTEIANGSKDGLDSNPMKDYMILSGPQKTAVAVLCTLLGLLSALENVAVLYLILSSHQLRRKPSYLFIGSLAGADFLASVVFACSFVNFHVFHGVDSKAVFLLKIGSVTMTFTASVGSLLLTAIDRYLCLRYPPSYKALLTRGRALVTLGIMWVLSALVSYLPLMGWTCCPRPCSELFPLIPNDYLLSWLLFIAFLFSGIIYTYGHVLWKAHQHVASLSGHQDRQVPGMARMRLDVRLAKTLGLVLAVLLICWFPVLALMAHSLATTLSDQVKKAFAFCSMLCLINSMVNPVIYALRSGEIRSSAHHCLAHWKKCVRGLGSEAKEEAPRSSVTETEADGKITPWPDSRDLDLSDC

T1 sequence (P37238 31-505): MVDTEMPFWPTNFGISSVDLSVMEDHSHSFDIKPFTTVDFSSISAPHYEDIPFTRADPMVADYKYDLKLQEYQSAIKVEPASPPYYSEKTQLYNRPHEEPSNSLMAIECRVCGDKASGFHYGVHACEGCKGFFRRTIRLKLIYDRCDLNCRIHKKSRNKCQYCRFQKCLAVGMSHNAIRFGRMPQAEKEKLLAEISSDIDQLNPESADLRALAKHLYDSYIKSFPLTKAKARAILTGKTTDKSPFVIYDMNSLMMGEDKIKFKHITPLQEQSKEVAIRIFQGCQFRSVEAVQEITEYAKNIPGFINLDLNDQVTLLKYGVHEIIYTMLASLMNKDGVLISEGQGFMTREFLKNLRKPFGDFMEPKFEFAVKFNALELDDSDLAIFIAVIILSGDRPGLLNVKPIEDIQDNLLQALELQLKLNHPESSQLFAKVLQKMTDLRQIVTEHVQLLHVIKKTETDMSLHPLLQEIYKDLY
T1 sequence (Q15648 527-970 partner limits assumed): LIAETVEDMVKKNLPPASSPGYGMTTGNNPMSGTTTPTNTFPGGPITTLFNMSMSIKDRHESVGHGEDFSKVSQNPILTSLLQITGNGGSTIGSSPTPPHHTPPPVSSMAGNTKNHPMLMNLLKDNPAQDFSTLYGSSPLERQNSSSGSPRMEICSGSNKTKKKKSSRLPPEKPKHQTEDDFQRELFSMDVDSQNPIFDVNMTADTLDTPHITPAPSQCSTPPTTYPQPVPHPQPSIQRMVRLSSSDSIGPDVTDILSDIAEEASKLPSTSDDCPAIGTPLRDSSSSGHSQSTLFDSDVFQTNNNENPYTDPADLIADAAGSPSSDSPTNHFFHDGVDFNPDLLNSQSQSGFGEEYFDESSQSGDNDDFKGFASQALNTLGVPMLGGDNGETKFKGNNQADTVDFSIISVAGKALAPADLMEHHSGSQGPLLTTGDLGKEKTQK

CCCCCCC(C)(C)c1cc(O)c2c(c1)OC(C)(C)[C@@H]1CC=C(C(=O)O)C[C@@H]21 [AJA, dimethylheptyl-THC-11-oic acid]
binding of PPARγ to GST-DRIP205 [1]: increased binding
psychoactivity [2]: does not show the typical psychoactive effect
activation of human PPARα [3]: did not activate
affinity to CB2 [4]: modest affinity
